Data reported in patent publication US12157732B2, “eIF4E inhibitors and uses thereof” (PIC Therapeutics, Inc., priority 2021, dated 2024).

Molecular target: T1, Human eIF4E (aa 28-217) / biotin labeled 4G2 peptide (Homo sapiens, UniProt P06730)
T1 construct: Human eIF4E (aa 28-217) with a C-terminal His-tag; made in house
Assay: Human eIF4E/4G2 binding assay (TR-FRET)
Conditions: TR-FRET eIF4E/4G2 peptide binding; 4 hours preincubation with eIF4E at room temperature
Method: Example 3. Compound Testing in Human eIF4E/4G2 Binding Assay
Human eIF4E (aa 28-217) with a C-terminal His-tag was expressed in E. coli in inclusion bodies. The protein was solubilized with 8 M urea and purified under denaturing conditions using nickel-charged HisTrap HP columns (GE Healthcare). The purified protein was then refolded by diluting in 20 mM Hepes pH 7.0, 0.5 M NaCl, 1 mM DTT, 1 mM EDTA, 0.5 M arginine plus 6 M urea, and then dialyzing overnight into the same buffer without the urea. The protein was further dialyzed into 20 mM Hepes, pH 6.5, 50 mM NaCl, 1 mM EDTA, 1 mM DTT, and concentrated using Hitrap SP sepharose FF columns (GE Healthcare). The concentrated protein was dialyzed into 20 mM Hepes, pH 7.0, 0.5M NaCl, 5 mM DTT and 10% glycerol, and stored at −80° C. until use.
Test compounds (3.43 mM stock in DMSO) were diluted 2-fold in series in DMSO (10 concentration points). Compound solutions (1.2 μl/well) were added into black 384-well polypropylene microplates (Matrix, Thermal Scientific). Twenty-two microliters per well of Assay Buffer (50 mM NaPi, pH 6.5, 50 mM KCl, 1 mM DTT and 0.5 mg/ml gamma globulin) and eight microliters per well of 82.5 nM purified eIF4E in Assay Buffer were added. The samples were incubated at room temperature (20-23° C.) for 4 hours. Biotin labeled 4G2 peptide (Ac-Lys-Gln-Tyr-Asp-Arg-Glu-Phe-Leu-Leu-Asp-Phe-Gln-Phe-Met-Pro-Lys(Aha-Bio)-NH2, 1.75 μM stock in DMSO) was diluted to 0.14 μM in Assay Buffer (without DTT) and 5 μl/well was added. The samples were incubated at room temperature for 20 min. Five microliters per well of 6.4 nM Eu-streptavidin (Eu-SA, Perkin Elmer) and 80 nM Allophycocyanin (APC)-anti His antibody (Columbia Biosciences) in Assay Buffer (without DTT) were then added and the samples were incubated at room temperature for 20 min.
Assay signals were monitored by reading excitation at 340 nm and emission fluorescence at 615 nm and 665 nm on an Envision reader (Perkin Elmer). Normalized TR-FRET (time-resolved fluorescence resonance energy transfer) assay signal (Rn) was calculated by the formula: Rn=[(A−Ba−C×D)/(D−Bd)]×(Dc−Bd) Where A is the fluorescence intensity of the sample at 665 nm, D is the fluorescence intensity of the sample at 615 nm, Ba and Bd are plate backgrounds at 665 nm and 615 nm, respectively, Dc is the fluorescence intensity of 0.78 nM Eu-SA in the assay buffer at 615 nm The cross-talk factor (C) is determined by the following formula: C=(Ac−Ba)/(Dc−Bd) Where Ac is the fluorescence intensity of 0.78 nM Eu-SA in the assay buffer at 665 nm.
IC50 values were calculated using xLFit program (IDBS). Table 3 below lists IC50 of some compounds, wherein A represents IC50<0.5 μM; B represents 500 nM<IC50<1 μM; and C represents IC50>1 μM.

T1 sequence (P06730 28-217): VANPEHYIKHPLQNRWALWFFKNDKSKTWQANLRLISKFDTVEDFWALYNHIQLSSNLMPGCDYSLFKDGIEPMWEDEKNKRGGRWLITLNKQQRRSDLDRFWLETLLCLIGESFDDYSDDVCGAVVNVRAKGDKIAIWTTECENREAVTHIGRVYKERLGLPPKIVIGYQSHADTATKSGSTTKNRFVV

First: CC(C)c1nc(Nc2ncc(C(F)(F)F)cc2C(=O)O)sc1-c1ccc(Cl)c(Cl)c1 [I-1, 2-(5-(3,4-Dichlorophenyl)-4-Isopropylthiazol-2-Ylamino)-5-(trifluoromethyl)nicotinic acid]
Second: COc1ccc(-c2sc(Nc3ncc(C(F)(F)F)cc3C(=O)O)nc2C(C)C)cc1Cl [I-51]
The IC50 of the first is lower: less than 0.5 µM for the first, 0.5 to 1 µM for the second.

First: CC(C)c1nc(Nc2ncc(-c3cccs3)cc2C(=O)O)sc1-c1ccc(Cl)c(Cl)c1 [I-2, 2-(5-(3,4-Dichlorophenyl)-4-Isopropylthiazol-2-Ylamino)-5-(Thiophen-2-yl)nicotinic acid]
Second: COc1ccc(-c2sc(Nc3ncc(-c4cccs4)cc3C(=O)O)nc2C(C)C)cc1Cl [I-50]
The IC50 of the first is lower: less than 0.5 µM for the first, 0.5 to 1 µM for the second. The first is the more potent here.

`CC(C)CCc1nc(Nc2ncc(-c3cccs3)cc2C(=O)O)sc1-c1ccc(Cl)c(Cl)c1` [I-3] and `CC(C)CCc1nc(Nc2ncc(-c3cccs3)cc2C(=O)O)sc1-c1ccccc1` [I-8] cannot be ordered by IC50: less than 0.5 µM for the first, less than 0.5 µM for the second.

`CC(C)CCc1nc(Nc2ncc(C(F)(F)F)cc2C(=O)O)sc1-c1ccc(Cl)c(Cl)c1` [I-4] and `CC(C)CCc1nc(Nc2ncccc2C(=O)O)sc1-c1ccc(Cl)c(Cl)c1` [I-7] cannot be ordered by IC50: less than 0.5 µM for the first, less than 0.5 µM for the second.

`CC(C)CCc1nc(Nc2ccsc2C(=O)O)sc1-c1ccc(Cl)c(Cl)c1` [I-5] and `CC(C)CCc1nc(Nc2cc(-c3ccccc3)sc2C(=O)O)sc1-c1ccc(Cl)c(Cl)c1` [I-6] cannot be ordered by IC50: less than 0.5 µM for the first, less than 0.5 µM for the second.

Compared with `CC(C)CCc1nc(Nc2ncc(-c3cccs3)cc2C(=O)O)sc1-c1ccc(S(C)(=O)=O)cc1` [I-9], `CC(C)CCc1nc(Nc2ncc(-c3cccs3)cc2C(=O)O)sc1-c1ccc(OC(F)(F)F)cc1` [I-17] is lower in IC50: 0.5 to 1 µM for the first, less than 0.5 µM for the second.

First: CC(C)CCc1nc(Nc2ncc(C(F)(F)F)cc2C(=O)O)sc1-c1ccc(S(C)(=O)=O)cc1 [I-10]
Second: CC(C)CCc1nc(Nc2ncc(C(F)(F)F)cc2C(=O)O)sc1-c1ccc(-c2ccccn2)cc1 [I-15]
The IC50 of the first is higher: 0.5 to 1 µM for the first, less than 0.5 µM for the second.

`CC(C)CCc1nc(Nc2cc(C3CCCC3)sc2C(=O)O)sc1-c1ccc(Cl)c(Cl)c1` [I-11] and `CC(C)CCc1nc(Nc2cc(C3CCCC3)sc2C(=O)O)sc1-c1ccc(OC(F)(F)F)cc1` [I-18] cannot be ordered by IC50: less than 0.5 µM for the first, less than 0.5 µM for the second.

`CC(C)CCc1nc(Nc2cc(C3CCCC3)sc2C(=O)O)sc1-c1ccc(Oc2ccccc2)cc1` [I-12] and `CC(C)CCc1nc(Nc2cc(C3CCCC3)sc2C(=O)O)sc1-c1ccc(-n2ccccc2=O)cc1` [I-13] cannot be ordered by IC50: less than 0.5 µM for the first, less than 0.5 µM for the second.

First: CC(C)CCc1nc(Nc2ncc(-c3cccs3)cc2C(=O)O)sc1-c1ccc(Oc2ccccc2)cc1 [I-14]
Second: COc1cc(-c2sc(Nc3ncc(-c4cccs4)cc3C(=O)O)nc2CC(C)C)ccc1F [I-55]
The IC50 of the first is lower: less than 0.5 µM for the first, 0.5 to 1 µM for the second. The first is the more potent here.

Going from `CC(C)CCc1nc(Nc2ncc(C(F)(F)F)cc2C(=O)O)sc1-c1ccc(N2CCOCC2)cc1` [I-16, 2-(4-Isopentyl-5-(4-Morpholinophenyl)Thiazol-2-Ylamino)-5-(trifluoromethyl)nicotinic acid] to `CC(C)Cc1nc(Nc2ncc(C(F)(F)F)cc2C(=O)O)sc1-c1ccc2ccccc2c1` [I-30], the IC50 falls from greater than 1 µM to less than 0.5 µM.

`CC(C)c1nc(Nc2ncc(C(F)(F)F)cc2C(=O)O)sc1-c1ccc2ccccc2c1` [I-19] and `CC(C)c1nc(Nc2ncc(C(F)(F)F)cc2C(=O)O)sc1-c1cccc2ccccc12` [I-20] fall in the same range of IC50: 0.5 to 1 µM for the first, 0.5 to 1 µM for the second.

`CC(C)c1nc(Nc2ncc(C(F)(F)F)cc2C(=O)O)sc1-c1cccs1` [I-21] and `CC(C)c1nc(Nc2ncc(C(F)(F)F)cc2C(=O)O)sc1-c1ccsc1` [I-22] fall in the same range of IC50: 0.5 to 1 µM for the first, 0.5 to 1 µM for the second.

`CC(C)c1nc(Nc2ncc(C(F)(F)F)cc2C(=O)O)sc1C1=CCCCC1` [I-23] and `CC(C)c1nc(Nc2ncc(-c3ccccc3)cc2C(=O)O)sc1C1=CCCCC1` [I-27, 2-(5-cyclohexenyl-4-isopropylthiazol-2-ylamino)-5-phenylnicotinic acid] fall in the same range of IC50: 0.5 to 1 µM for the first, 0.5 to 1 µM for the second.

`CC(C)c1nc(Nc2ncc(C(F)(F)F)cc2C(=O)O)sc1-c1ccc(-c2cccs2)cc1` [I-24, 2-(4-Isopropyl-5-(4-(Thiophen-2-Yl)Phenyl)Thiazol-2-Ylamino)-5-(trifluoromethyl)nicotinic acid] and `CC(C)c1nc(Nc2ncc(C(F)(F)F)cc2C(=O)O)sc1-c1ccc(-c2ccccc2)cc1` [I-38] cannot be ordered by IC50: less than 0.5 µM for the first, less than 0.5 µM for the second.

Compared with `CC(C)c1nc(Nc2ncc(C(F)(F)F)cc2C(=O)O)sc1-c1ccc(C(F)(F)F)cc1` [I-25], `CC(C)c1nc(Nc2ncc(C(F)(F)F)cc2C(=O)O)sc1-c1ccc(C(C)(C)C)cc1` [I-35] is lower in IC50: 0.5 to 1 µM for the first, less than 0.5 µM for the second.

`CC(C)c1nc(Nc2ncc(C(F)(F)F)cc2C(=O)O)sc1-c1ccc(Cl)cc1Cl` [I-31, 2-(5-(2,4-dichlorophenyl)-4-isopropylthiazol-2-ylamino)-5-(trifluoromethyl)nicotinic acid] and `CC(C)c1nc(Nc2ncc(C(F)(F)F)cc2C(=O)O)sc1-c1ccc(Cl)cc1F` [I-37, 2-(5-(4-chloro-2-fluorophenyl)-4-isopropylthiazol-2-ylamino)-5-(trifluoromethyl)nicotinic acid] fall in the same range of IC50: 0.5 to 1 µM for the first, 0.5 to 1 µM for the second.

Compared with `CC(C)c1nc(Nc2ncc(C(F)(F)F)cc2C(=O)O)sc1-c1csc2ccccc12` [I-32, 2-(5-(benzo[b]thiophen-3-yl)-4-isopropylthiazol-2-ylamino)-5-(trifluoromethyl)nicotinic acid], `CC(C)c1nc(Nc2ncc(C(F)(F)F)cc2C(=O)O)sc1-c1ccccn1` [I-46, 2-(4-isopropyl-5-(pyridin-2-yl)thiazol-2-ylamino)-5-(trifluoromethyl)nicotinic acid] is higher in IC50: 0.5 to 1 µM for the first, greater than 1 µM for the second.

Compared with `CC(C)c1nc(Nc2ncc(C(F)(F)F)cc2C(=O)O)sc1-c1ccc(C(F)(F)F)cc1Cl` [I-33], `CC(C)c1nc(Nc2ncc(C(F)(F)F)cc2C(=O)O)sc1-c1ccc(C(F)(F)F)c(F)c1` [I-39] is lower in IC50: 0.5 to 1 µM for the first, less than 0.5 µM for the second. The second is the more potent here.

`CC(C)c1ccc(-c2sc(Nc3ncc(C(F)(F)F)cc3C(=O)O)nc2C(C)C)cc1` [I-34] and `COc1ccc(-c2sc(Nc3ncc(C(F)(F)F)cc3C(=O)O)nc2C(C)C)cc1` [I-41] fall in the same range of IC50: 0.5 to 1 µM for the first, 0.5 to 1 µM for the second.

`CC(C)c1nc(Nc2ncc(C(F)(F)F)cc2C(=O)O)sc1-c1ccc(F)cc1F` [I-36] and `COc1cc(Cl)ccc1-c1sc(Nc2ncc(C(F)(F)F)cc2C(=O)O)nc1C(C)C` [I-40] fall in the same range of IC50: 0.5 to 1 µM for the first, 0.5 to 1 µM for the second.

Compared with `COc1ccc(-c2sc(Nc3ncc(C(F)(F)F)cc3C(=O)O)nc2C(C)C)cc1OC` [I-42], `COc1ccc(-c2sc(Nc3ncc(C(F)(F)F)cc3C(=O)O)nc2C(C)C)cc1F` [I-43] is lower in IC50: greater than 1 µM for the first, 0.5 to 1 µM for the second.

First: CC(C)c1nc(Nc2ncc(C(F)(F)F)cc2C(=O)O)sc1-c1ccc(OC(F)F)cc1 [I-44]
Second: CC(C)c1nc(Nc2ncc(C(F)(F)F)cc2C(=O)O)sc1-c1ccc(OCc2ccccc2)cc1 [I-45]
The IC50 of the first is higher: 0.5 to 1 µM for the first, less than 0.5 µM for the second. The second is the more potent here.

First: COc1ccc(-c2sc(Nc3ncc(C(F)(F)F)cc3C(=O)O)nc2C(C)C)c(OC)c1 [I-47]
Second: CC(C)c1nc(Nc2ncc(C(F)(F)F)cc2C(=O)O)sc1-c1ccc(Cl)s1 [I-48]
The IC50 of the first is higher: greater than 1 µM for the first, 0.5 to 1 µM for the second.

First: CC(C)c1nc(Nc2ncc(C(F)(F)F)cc2C(=O)O)sc1-c1ccc(-c2ccccc2)s1 [I-49]
Second: COc1ccc(-c2sc(Nc3ncc(-c4cccs4)cc3C(=O)O)nc2C)cc1Cl [I-53]
The IC50 of the first is lower: less than 0.5 µM for the first, 0.5 to 1 µM for the second.

`COc1ccc(-c2sc(Nc3ncc(-c4cccs4)cc3C(=O)O)nc2C2CC2)cc1Cl` [I-52, 2-((5-(3-chloro-4-methoxyphenyl)-4-cyclopropylthiazol-2-yl)amino)-5-(thiophen-2-yl)nicotinic acid] and `COc1ccc(-c2sc(Nc3ncc(-c4cccs4)cc3C(=O)O)nc2C2CC2)cc1` [I-54] cannot be ordered by IC50: less than 0.5 µM for the first, less than 0.5 µM for the second.
